Experimental data from patent US20250367191A1, “TREATMENT OF MITOCHONDRIAL DISEASES WITH A CNS-PENETRANT SGC STIMULATOR ZAGOCIGUAT” (Tisento Therapeutics Inc., priority 2022, published 2025).

Tests used:
[1] = tested on: participants diagnosed with MELAS; test: MELAS study: cerebral blood flow by arterial spin labeling (ASL); assay type: in vivo, human; conditions: 15 mg QD
Description: Two exploratory functional neuroimaging modalities, arterial spin labeling (ASL) and functional magnetic resonance imaging (fMRI), were used to measure the potential PD effects of Compound I in the brain. While ASL quantifies regional CBF during the resting state, fMRI is a relative measure based on the blood-oxygen-level-dependent (BOLD) effect and was conducted during both a resting state and during a visual stimulus to measure brain activity.
Each individual MRI scanning session took approximately 45 minutes (maximum of ˜1 hour).
(§1) This change was observed across all brain regions of interest. Effect size throughout this disclosure is defined as the means change from baseline in a particular parameter that is being measured, divided by the standard deviation. Effect sizes closer to 1 or −1 (positive or negative dependent on the direction of movement for the specific parameter, i.e. +0.8 to +1.0 or −0.8 to −1.0) are usually considered large. Effect sizes between 0.5 and 0.8 or −0.5 and −0.8 (positive or negative dependent on the direction of movement for the specific parameter) are usually considered moderate. Effect sizes closer to below 0.5 or −0.5 (positive or negative dependent on the direction of movement for the specific parameter) are usually considered small.

[2] = tested on: participants diagnosed with MELAS; test: MELAS study: inflammatory biomarkers in plasma (InflammationMAP panel); assay type: in vivo, human
Description: (§2) Plasma and serum samples for biomarkers were collected from each participant. These biomarkers tested the target engagement of Compound I as well as the impact of the compound on disease. Plasma or serum samples were analyzed for concentrations of growth differentiation factor 15 (GDF-15), lactate, pyruvate, alanine, neurofilament light chain (NFL), vascular cell adhesion molecule 1, interleukin-1beta, asymmetric dimethylarginine (ADMA), L arginine, and other biomarkers relevant to the pathophysiology of mitochondrial disease, as well as their response to Compound I.
as §1
26 out of the 40 (65%) inflammatory biomarkers assessed in plasma as part of the InflammationMAP® panel were reduced with effect sizes less or equal than −0.3. Only 3 of the 40 (7.5%) inflammatory biomarkers assessed in plasma increased with an effect size equal or more than 0.3. The changes in concentrations as well as the effect sizes for inflammatory markers measured in plasma are summarized in the 3 tables below (Table 1: large effect size; Table 2: moderate effect size and Table 3: small effect size). The concentration values in Tables 1-3 were measured in the standard units for each of these laboratory measures as known in the art. Many of these biomarkers tended to increase again back to baseline levels after treatment with Compound I was stopped, supporting a drug effect.

[3] = tested on: participants diagnosed with MELAS; test: MELAS study: plasma biomarkers of mitochondrial dysfunction (lactate, GDF-15, FGF-21); assay type: in vivo, human
Description: as §2, §1

[4] = tested on: participants diagnosed with MELAS; test: MELAS study: patient-reported outcomes (PGIC, MFIS, PROMIS); assay type: in vivo, human
Text: The Patient-reported Outcomes Measurement Information System (PROMIS) Item Bank v2.0—Cognitive Function is a self-administered questionnaire that assesses multiple aspects of mental fatigue and cognitive function in the past 7 days prior to the administration of the questionnaire. It uses a Likert-type rating scale (eg, “Never” to “Very often”).
The Patient Global Impression of Change (PGIC) is a single-item questionnaire that assesses the participant's perception of change in his/her overall health status since the start of the study using a Likert-type rating scale (eg, “Very much improved” to “Very much worse”).
The Modified Fatigue Impact Scale (MFIS) is a self-administered questionnaire that assesses the impact of fatigue in terms of physical, cognitive, and psychosocial functioning over the past 4 weeks. Patients respond using a Likert-type rating scale. (eg, “Never” to “Almost always”).

[5] = Clinical trial in patients with stable schizophrenia: PK and safety; assay type: in vivo, human; conditions: total oral daily dosages up to 60 mg per day
mice = mice pretreated, compared with vehicle-treated mice; cited from earlier work
rodent = conditions: single dose; cited from earlier work
[6] = plasma, trend towards reduction

SMILES: Fc1ccccc1Cc1nc(-c2nc(C(F)(F)F)n[nH]2)cn2ccnc12 [Compound I, zagociguat]
- CBF on day 29 compared to baseline (day 1) ([1]; ASL, all brain regions of interest): increase of CBF
- patients with increased CBF between day 1 and day 29 ([1]; individual patients): 5 of the 8
- Alpha-1-Antitrypsin, Effect size ([2]; 15 mg QD, day 29 vs baseline): −0.4
- Alpha-1-Antitrypsin, change in concentration, Mean ([2]; 15 mg QD, day 29 vs baseline): −0.2
- Alpha-2-Macroglobulin, Effect size ([2]; 15 mg QD, day 29 vs baseline): −0.3
- Alpha-2-Macroglobulin, change in concentration, Mean ([2]; 15 mg QD, day 29 vs baseline): −0.2
- Beta-2-Microglobulin, Effect size ([2]; 15 mg QD, day 29 vs baseline): −1.0
- Beta-2-Microglobulin, change in concentration, Mean ([2]; 15 mg QD, day 29 vs baseline): −0.5
- Brain-Derived Neurotrophic Factor, Effect size ([2]; 15 mg QD, day 29 vs baseline): −0.5
- Brain-Derived Neurotrophic Factor, change in concentration, Mean ([2]; 15 mg QD, day 29 vs baseline): −2.1
- C-Reactive Protein, Effect size ([2]; 15 mg QD, day 29 vs baseline): −0.6
- C-Reactive Protein, change in concentration, Mean ([2]; 15 mg QD, day 29 vs baseline): −3.4
- EN-RAGE, Effect size ([2]; 15 mg QD, day 29 vs baseline): −0.4
- EN-RAGE, change in concentration, Mean ([2]; 15 mg QD, day 29 vs baseline): −28.4
- Eotaxin-1, Effect size ([2]; 15 mg QD, day 29 vs baseline): −0.4
- Eotaxin-1, change in concentration, Mean ([2]; 15 mg QD, day 29 vs baseline): −10.1
- Factor VII, Effect size ([2]; 15 mg QD, day 29 vs baseline): −0.4
- Factor VII, change in concentration, Mean ([2]; 15 mg QD, day 29 vs baseline): −87.4
- Ferritin, Effect size ([2]; 15 mg QD, day 29 vs baseline): −0.6
- Ferritin, change in concentration, Mean ([2]; 15 mg QD, day 29 vs baseline): −21.4
- Fibrinogen, Effect size ([2]; 15 mg QD, day 29 vs baseline): −0.4
- Fibrinogen, change in concentration, Mean ([2]; 15 mg QD, day 29 vs baseline): −1.4
- Granulocyte-Macrophage Colony-Stimulating Factor, Effect size ([2]; 15 mg QD, day 29 vs baseline): −0.4
- Granulocyte-Macrophage Colony-Stimulating Factor, change in concentration, Mean ([2]; 15 mg QD, day 29 vs baseline): −13.6
- Immunoglobulin A, Effect size ([2]; 15 mg QD, day 29 vs baseline): −0.5
- Immunoglobulin A, change in concentration, Mean ([2]; 15 mg QD, day 29 vs baseline): −0.4
- Immunoglobulin M, Effect size ([2]; 15 mg QD, day 29 vs baseline): −0.6
- Immunoglobulin M, change in concentration, Mean ([2]; 15 mg QD, day 29 vs baseline): −0.4
- Intercellular Adhesion Molecule 1, Effect size ([2]; 15 mg QD, day 29 vs baseline): −0.3
- Intercellular Adhesion Molecule 1, change in concentration, Mean ([2]; 15 mg QD, day 29 vs baseline): −12.1
- Interleukin-10 (IL-10), Effect size ([2]; 15 mg QD, day 29 vs baseline): 0.4
- Interleukin-10 (IL-10), change in concentration, Mean ([2]; 15 mg QD, day 29 vs baseline): 0.3
- Interleukin-17 (IL-17), Effect size ([2]; 15 mg QD, day 29 vs baseline): 0.5
- Interleukin-17 (IL-17), change in concentration, Mean ([2]; 15 mg QD, day 29 vs baseline): 0.03
- Interleukin-18, Effect size ([2]; 15 mg QD, day 29 vs baseline): −0.4
- Interleukin-18, change in concentration, Mean ([2]; 15 mg QD, day 29 vs baseline): −25.6
- Matrix Metalloproteinase-9 (MMP-9), Effect size ([2]; 15 mg QD, day 29 vs baseline): 0.4
- Matrix Metalloproteinase-9 (MMP-9), change in concentration, Mean ([2]; 15 mg QD, day 29 vs baseline): 37.3
- Myoglobin, Effect size ([2]; 15 mg QD, day 29 vs baseline): −0.4
- Myoglobin, change in concentration, Mean ([2]; 15 mg QD, day 29 vs baseline): −32.5
- Plasminogen Activator Inhibitor 1, Effect size ([2]; 15 mg QD, day 29 vs baseline): −0.4
- Plasminogen Activator Inhibitor 1, change in concentration, Mean ([2]; 15 mg QD, day 29 vs baseline): −11.6
- Pulmonary and Activation-Regulated Chemokine, Effect size ([2]; 15 mg QD, day 29 vs baseline): −0.5
- Pulmonary and Activation-Regulated Chemokine, change in concentration, Mean ([2]; 15 mg QD, day 29 vs baseline): −15.3
- Serum Amyloid P-Component, Effect size ([2]; 15 mg QD, day 29 vs baseline): −0.9
- Serum Amyloid P-Component, change in concentration, Mean ([2]; 15 mg QD, day 29 vs baseline): −5.0
- T-Cell-Specific Protein RANTES, Effect size ([2]; 15 mg QD, day 29 vs baseline): −0.5
- T-Cell-Specific Protein RANTES, change in concentration, Mean ([2]; 15 mg QD, day 29 vs baseline): −7.2
- Thyroxine-Binding Globulin, Effect size ([2]; 15 mg QD, day 29 vs baseline): −0.7
- Thyroxine-Binding Globulin, change in concentration, Mean ([2]; 15 mg QD, day 29 vs baseline): −8.4
- Tumor necrosis factor receptor 2, Effect size ([2]; 15 mg QD, day 29 vs baseline): −0.7
- Tumor necrosis factor receptor 2, change in concentration, Mean ([2]; 15 mg QD, day 29 vs baseline): −1.8
- Vascular Cell Adhesion Molecule-1, Effect size ([2]; 15 mg QD, day 29 vs baseline): −0.6
- Vascular Cell Adhesion Molecule-1, change in concentration, Mean ([2]; 15 mg QD, day 29 vs baseline): −98.3
- Vascular Endothelial Growth Factor, Effect size ([2]; 15 mg QD, day 29 vs baseline): −0.3
- Vascular Endothelial Growth Factor, change in concentration, Mean ([2]; 15 mg QD, day 29 vs baseline): −7.0
- Vitamin D-Binding Protein, Effect size ([2]; 15 mg QD, day 29 vs baseline): −0.5
- Vitamin D-Binding Protein, change in concentration, Mean ([2]; 15 mg QD, day 29 vs baseline): −26.5
- von Willebrand Factor, Effect size ([2]; 15 mg QD, day 29 vs baseline): −0.4
- von Willebrand Factor, change in concentration, Mean ([2]; 15 mg QD, day 29 vs baseline): −123.4
- inflammatory biomarkers increased with an effect size equal or more than 0.3 (3 of the 40) ([2]; 40 biomarkers assessed): 7.5%
- inflammatory biomarkers reduced with effect sizes less or equal than −0.3 (26 out of the 40) ([2]; 40 biomarkers assessed): 65%
- participants with reductions in GDF-15 ([3]; in vivo): 4 of 8
- participants with reductions in lactate ([3]; in vivo): 6 of 8
- reductions in GDF-15, greatest ([3]; participants with higher baseline concentrations): up to 39%
- FGF-21, effect size [3, 6]: −0.2
- GDF-15, effect size [3, 6]: −0.5
- Lactate concentrations, effect size [3, 6]: −0.5
- participants reporting improvement in their disease (PGIC) ([4]; 8 participants): Three of the 8
- participants reporting no change in their disease (PGIC) ([4]; 8 participants): 4
- participants reporting their disease as much worse (PGIC) ([4]; 8 participants): 1
- changes in MFIS and PROMIS at the study level ([4]; Day 29): not observed
- PK, dose proportionality [5]: proportional PK
- safety and tolerability [5]: safe and well tolerated
- rotenone-induced astrogliosis (mice): lower rotenone-induced astrogliosis
- fMRI-BOLD signals (rodent): increased fMRI-BOLD signals
- levels of cGMP in the CNS (rodent): increased levels of cGMP in the CNS
- qEEG gamma-band oscillatory power (rodent): elevated qEEG gamma-band oscillatory power
